Results taken from patent publication US9452986B2, “6-heteroaryloxy- or 6-aryloxy-quinoline-2-carboxamides and method of use” (AbbVie Inc., priority 2014, dated 2016).

Biological target: recombinant human Nav1.7 (Homo sapiens (Human), UniProt Q15858)
Experiment: FRET-based membrane potential assay, recombinant human sodium channel Nav1.7
Assay type: cell-based
Conditions: HEK293 cells stably expressing recombinant human Nav1.7; veratridine + scorpion venom depolarization; read-out: FRET-Membrane Potential Nav1.7 IC50
Description: FRET-Based Membrane Potential Assays.
Recombinant, Human Sodium Channel, Nav1.7.
On the day of the assay, medium was removed by aspiration, and cells were washed with assay buffer [HBSS (Invitrogen, Carlsbad, Calif.) containing 20 mM HEPES (Invitrogen, Carlsbad, Calif.)]. […] Cells were incubated for 40 minutes at room temperature in the dark. […] The cells were incubated for 90 minutes at room temperature in the dark. Fluorescence readings were made using a FLIPR®^TETRA (Molecular Devices, Sunnyvale Calif.) equipped with voltage-sensor probe optics. At the start of each experiment the optimal (EC80) concentration of depolarizing agent (veratridine) was determined by testing a dilution curve of assay buffer containing veratridine (Sigma-Aldrich, St. Louis, Mo.) and 1 mg/mL scorpion venom (SVqq, from Leiurus quinquestriatus; Sigma-Aldrich, St. Louis, Mo.). […] Test compounds in the daughter plate were diluted to (˜3×) solutions in assay buffer immediately before assaying. Using the FLIPR®^TETRA, 20 μL of the (3×) compound solutions were first added to the cells, then 20 μL of depolarizing solution (3×EC80 veratridine+SVqq) were added 3 minutes later to activate the channel. […] IC50 values were calculated from curve fits of the ratio data using a four-parameter logistic Hill equation (Accelrys Assay Explorer 3.3 Client, Accelrys, San Diego, Calif.) with percent inhibition plotted against compound concentration.

Sequence of recombinant human Nav1.7 (Q15858 whole entry): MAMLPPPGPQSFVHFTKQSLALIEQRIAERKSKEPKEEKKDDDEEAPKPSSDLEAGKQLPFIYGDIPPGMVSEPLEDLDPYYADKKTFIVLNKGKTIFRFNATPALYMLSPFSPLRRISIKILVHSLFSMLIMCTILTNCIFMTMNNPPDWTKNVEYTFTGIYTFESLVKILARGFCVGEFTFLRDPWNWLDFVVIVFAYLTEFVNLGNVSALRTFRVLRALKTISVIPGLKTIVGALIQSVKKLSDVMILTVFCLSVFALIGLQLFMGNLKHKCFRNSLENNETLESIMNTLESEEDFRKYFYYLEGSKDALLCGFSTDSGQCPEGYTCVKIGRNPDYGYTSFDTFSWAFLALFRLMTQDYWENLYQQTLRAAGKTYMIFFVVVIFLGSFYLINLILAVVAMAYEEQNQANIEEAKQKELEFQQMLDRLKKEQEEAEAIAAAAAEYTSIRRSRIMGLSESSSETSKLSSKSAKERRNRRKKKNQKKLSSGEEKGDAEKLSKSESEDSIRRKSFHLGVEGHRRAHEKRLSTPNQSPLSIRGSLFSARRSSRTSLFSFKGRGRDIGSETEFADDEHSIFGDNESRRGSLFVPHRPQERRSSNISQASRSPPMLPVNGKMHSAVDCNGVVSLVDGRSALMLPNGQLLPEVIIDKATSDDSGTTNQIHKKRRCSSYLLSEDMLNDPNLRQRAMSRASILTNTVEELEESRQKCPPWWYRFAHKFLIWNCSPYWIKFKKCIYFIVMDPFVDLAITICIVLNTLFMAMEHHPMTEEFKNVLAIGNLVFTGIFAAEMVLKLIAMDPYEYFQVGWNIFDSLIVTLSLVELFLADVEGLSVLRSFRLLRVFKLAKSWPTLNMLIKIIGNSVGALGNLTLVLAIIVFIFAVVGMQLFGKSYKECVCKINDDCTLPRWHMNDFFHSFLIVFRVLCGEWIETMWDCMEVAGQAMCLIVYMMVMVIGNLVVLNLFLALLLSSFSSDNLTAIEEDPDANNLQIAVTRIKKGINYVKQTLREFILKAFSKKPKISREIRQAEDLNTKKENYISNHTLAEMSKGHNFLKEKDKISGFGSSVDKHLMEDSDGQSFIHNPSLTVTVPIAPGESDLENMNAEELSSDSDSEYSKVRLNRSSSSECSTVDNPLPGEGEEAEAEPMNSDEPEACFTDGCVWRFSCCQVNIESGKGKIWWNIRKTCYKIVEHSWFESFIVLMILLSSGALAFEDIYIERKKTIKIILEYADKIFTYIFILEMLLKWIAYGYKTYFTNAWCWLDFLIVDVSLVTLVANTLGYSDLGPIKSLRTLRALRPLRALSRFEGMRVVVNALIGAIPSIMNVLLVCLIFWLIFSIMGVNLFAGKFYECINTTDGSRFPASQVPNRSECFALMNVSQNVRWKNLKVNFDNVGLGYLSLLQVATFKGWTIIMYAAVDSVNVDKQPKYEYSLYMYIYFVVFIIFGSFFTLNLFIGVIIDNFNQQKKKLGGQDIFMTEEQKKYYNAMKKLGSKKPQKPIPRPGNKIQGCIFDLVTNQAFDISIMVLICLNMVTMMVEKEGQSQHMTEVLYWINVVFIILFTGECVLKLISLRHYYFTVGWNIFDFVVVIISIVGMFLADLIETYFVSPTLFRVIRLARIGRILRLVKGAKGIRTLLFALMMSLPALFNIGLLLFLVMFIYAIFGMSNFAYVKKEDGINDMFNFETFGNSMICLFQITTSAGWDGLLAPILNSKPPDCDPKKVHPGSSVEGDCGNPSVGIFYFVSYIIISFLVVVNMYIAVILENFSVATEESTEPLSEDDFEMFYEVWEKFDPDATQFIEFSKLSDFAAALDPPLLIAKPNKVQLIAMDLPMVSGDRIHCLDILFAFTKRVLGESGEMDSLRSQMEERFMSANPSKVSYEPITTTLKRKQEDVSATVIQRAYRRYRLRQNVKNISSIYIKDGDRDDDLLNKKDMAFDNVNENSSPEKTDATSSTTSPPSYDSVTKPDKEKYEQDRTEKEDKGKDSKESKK

Q: `Cc1ccc(CNC(=O)c2ccc3cc(Oc4ccc(C#N)cc4)ccc3n2)o1` [Example 99, 6-(4-cyanophenoxy)-N-[(5-methyl-2-furyl)methyl]quinoline-2-carboxamide] was tested. Which IC50 did it give?
A: 5.05 µM

Q: `N#Cc1ccc(Oc2ccc3nc(C(=O)NCCCN4CCCCC4)ccc3c2)cc1` [Example 100, 6-(4-cyanophenoxy)-N-[3-(piperidin-1-yl)propyl]quinoline-2-carboxamide] was tested. Which IC50 did it give?
A: 0.221 µM

Q: `N#Cc1ccc(Oc2ccc3nc(C(=O)NCc4cccc(OC(F)(F)F)c4)ccc3c2)cc1` [Example 102, 6-(4-cyanophenoxy)-N-[3-(trifluoromethoxy)benzyl]quinoline-2-carboxamide] was tested. Which IC50 did it give?
A: > 20 µM

Q: With `Cc1ccc(CNC(=O)c2ccc3cc(Oc4ccc(C#N)cc4)ccc3n2)cc1` [Example 103, 6-(4-cyanophenoxy)-N-(4-methylbenzyl)quinoline-2-carboxamide] as the molecule, how does the IC50 read?
A: > 20 µM

Q: Which IC50 does the source give for `N#Cc1ccc(Oc2ccc3nc(C(=O)NCc4ccc5c(c4)OCO5)ccc3c2)cc1` [Example 104, N-(1,3-benzodioxol-5-ylmethyl)-6-(4-cyanophenoxy)quinoline-2-carboxamide] here?
A: > 20 µM

Q: For `COc1cccc(CNC(=O)c2ccc3cc(Oc4ccc(C#N)cc4)ccc3n2)c1OC` [Example 105, 6-(4-cyanophenoxy)-N-(2,3-dimethoxybenzyl)quinoline-2-carboxamide], which IC50 is on record?
A: 7.25 µM

Q: How did the IC50 turn out when `N#Cc1ccc(Oc2ccc3nc(C(=O)N4CCCCCC4)ccc3c2)cc1` [Example 106, 4-{[2-(azepan-1-ylcarbonyl)quinolin-6-yl]oxy}benzonitrile] was run?
A: 2.42 µM

Q: How did the IC50 turn out when `CCCN(CCOC)C(=O)c1ccc2cc(Oc3ccc(C#N)cc3)ccc2n1` [Example 107, 6-(4-cyanophenoxy)-N-(2-methoxyethyl)-N-propylquinoline-2-carboxamide] was run?
A: 4.12 µM

Q: How did the IC50 turn out when `CCOCCNC(=O)c1ccc2cc(Oc3ccc(C#N)cc3)ccc2n1` [Example 108, 6-(4-cyanophenoxy)-N-(2-ethoxyethyl)quinoline-2-carboxamide] was run?
A: 2.41 µM

Q: For `N#Cc1ccc(Oc2ccc3nc(C(=O)NC4CCN(Cc5ccccc5)C4)ccc3c2)cc1` (stereo not shown) [Example 109, N-(1-benzylpyrrolidin-3-yl)-6-(4-cyanophenoxy)quinoline-2-carboxamide], which IC50 is on record?
A: 0.66 µM

Q: For `N#Cc1ccc(Oc2ccc3nc(C(=O)N4CCCC(C(F)(F)F)C4)ccc3c2)cc1` (stereo not shown) [Example 110, 4-[(2-{[3-(trifluoromethyl)piperidin-1-yl]carbonyl}quinolin-6-yl)oxy]benzonitrile], which IC50 is on record?
A: 1.96 µM

Q: Which IC50 does the source give for `N#Cc1ccc(Oc2ccc3nc(C(=O)N[C@@H]4CCOC4=O)ccc3c2)cc1` [Example 113, 6-(4-cyanophenoxy)-N-[(3R)-2-oxotetrahydrofuran-3-yl]quinoline-2-carboxamide] here?
A: 0.741 µM

Q: Which IC50 does the source give for `CS(=O)(=O)NC(=O)c1ccc2cc(Oc3ccc(C#N)cc3)ccc2n1` [Example 115, 6-(4-cyanophenoxy)-N-(methylsulfonyl)quinoline-2-carboxamide] here?
A: 11.2 µM

Q: How did the IC50 turn out when `N#Cc1ccc(Oc2ccc3nc(C(=O)NC4CCCOC4)ccc3c2)cc1` (stereo not shown) [Example 116, 6-(4-cyanophenoxy)-N-(tetrahydro-2H-pyran-3-yl)quinoline-2-carboxamide] was run?
A: 1.03 µM

Q: How did the IC50 turn out when `CC(C)(O)CNC(=O)c1ccc2cc(Oc3ccc(C#N)cc3)ccc2n1` [Example 122, 6-(4-cyanophenoxy)-N-(2-hydroxy-2-methylpropyl)quinoline-2-carboxamide] was run?
A: 2.49 µM

Q: Which IC50 does the source give for `N#Cc1ccc(Oc2ccc3nc(C(=O)N[C@H]4CC[C@H](O)CC4)ccc3c2)cc1` [Example 125, 6-(4-cyanophenoxy)-N-(trans-4-hydroxycyclohexyl)quinoline-2-carboxamide] here?
A: 3.46 µM

Q: `N#Cc1ccc(Oc2ccc3nc(C(=O)NC(CO)CO)ccc3c2)cc1` [Example 126, 6-(4-cyanophenoxy)-N-(1,3-dihydroxypropan-2-yl)quinoline-2-carboxamide] was tested. Which IC50 did it give?
A: 8.76 µM

Q: How did the IC50 turn out when `N#Cc1ccc(Oc2ccc3nc(C(=O)N[C@H]4CCC[C@@H](O)C4)ccc3c2)cc1` [Example 129, 6-(4-cyanophenoxy)-N-[(1S,3R)-3-hydroxycyclohexyl]quinoline-2-carboxamide] was run?
A: 2.58 µM

Q: `N#Cc1ccc(Oc2ccc3nc(C(=O)N[C@H]4CC[C@@H](O)C4)ccc3c2)cc1` [Example 130, 6-(4-cyanophenoxy)-N-[(1S,3R)-3-hydroxycyclopentyl]quinoline-2-carboxamide] was tested. Which IC50 did it give?
A: 2.05 µM

Q: For `N#Cc1ccc(Oc2ccc3nc(C(=O)N[C@H]4CCC[C@H](O)C4)ccc3c2)cc1` [Example 132, 6-(4-cyanophenoxy)-N-[(1S,3S)-3-hydroxycyclohexyl]quinoline-2-carboxamide], which IC50 is on record?
A: 2.7 µM

Q: Which IC50 does the source give for `N#Cc1ccc(Oc2ccc3nc(C(=O)N[C@H]4CC[C@@H](O)CC4)ccc3c2)cc1` [Example 133, 6-(4-cyanophenoxy)-N-(cis-4-hydroxycyclohexyl)quinoline-2-carboxamide] here?
A: 1.17 µM

Q: Which IC50 does the source give for `N#Cc1ccc(Oc2ccc3nc(C(=O)N4CCNC(=O)C4)ccc3c2)cc1` [Example 137, 4-({2-[(3-oxopiperazin-1-yl)carbonyl]quinolin-6-yl}oxy)benzonitrile] here?
A: 8.24 µM

Q: For `N#Cc1ccc(Oc2ccc3nc(C(=O)N4CCC(N5CCOCC5)CC4)ccc3c2)cc1` [Example 138, 4-[(2-{[4-(morpholin-4-yl)piperidin-1-yl]carbonyl}quinolin-6-yl)oxy]benzonitrile], which IC50 is on record?
A: 2.47 µM

Same assay, conditions: read-out: FRET-Membrane Potential Nav1.7 IC50

Q: For `N#Cc1ccc(Oc2ccc3nc(C(=O)Nc4ccc(Oc5ccccc5)cc4)ccc3c2)cc1` [Example 101, 6-(4-cyanophenoxy)-N-(4-phenoxyphenyl)quinoline-2-carboxamide], which IC50 is on record?
A: > 20 µM

Q: With `N#Cc1ccc(Oc2ccc3nc(C(=O)N4CCc5ccccc54)ccc3c2)cc1` [Example 111, 4-{[2-(2,3-dihydro-1H-indol-1-ylcarbonyl)quinolin-6-yl]oxy}benzonitrile] as the molecule, how does the IC50 read?
A: > 20 µM

Q: Which IC50 does the source give for `N#Cc1ccc(Oc2ccc3nc(C(=O)N4CCNCC4)ccc3c2)cc1` [Example 112, 4-{[2-(piperazin-1-ylcarbonyl)quinolin-6-yl]oxy}benzonitrile] here?
A: 1.48 µM

Q: With `N#Cc1ccc(Oc2ccc3nc(C(=O)NC4CCOC4)ccc3c2)cc1` (stereo not shown) [Example 114, 6-(4-cyanophenoxy)-N-(tetrahydrofuran-3-yl)quinoline-2-carboxamide] as the molecule, how does the IC50 read?
A: 0.56 µM

Q: How did the IC50 turn out when `N#Cc1ccc(Oc2ccc3nc(C(=O)N[C@@H]4CCOC4)ccc3c2)cc1` [Example 117, 6-(4-cyanophenoxy)-N-[(3R)-tetrahydrofuran-3-yl]quinoline-2-carboxamide] was run?
A: 2.23 µM

Q: Which IC50 does the source give for `N#Cc1ccc(Oc2ccc3nc(C(=O)N[C@H]4CCOC4)ccc3c2)cc1` [Example 118, 6-(4-cyanophenoxy)-N-[(3S)-tetrahydrofuran-3-yl]quinoline-2-carboxamide] here?
A: 2.27 µM

Q: How did the IC50 turn out when `N#Cc1ccc(Oc2ccc3nc(C(=O)N[C@@H]4CCCC[C@@H]4O)ccc3c2)cc1` [Example 119, 6-(4-cyanophenoxy)-N-[(1R,2S)-2-hydroxycyclohexyl]quinoline-2-carboxamide] was run?
A: 0.819 µM

Q: With `N#Cc1ccc(Oc2ccc3nc(C(=O)N[C@H]4CCCC[C@@H]4O)ccc3c2)cc1` [Example 120, 6-(4-cyanophenoxy)-N-[(1S,2S)-2-hydroxycyclohexyl]quinoline-2-carboxamide] as the molecule, how does the IC50 read?
A: 2.04 µM

Q: How did the IC50 turn out when `N#Cc1ccc(Oc2ccc3nc(C(=O)N[C@H]4CCC[C@@H]4O)ccc3c2)cc1` [Example 121, 6-(4-cyanophenoxy)-N-[(1S,2S)-2-hydroxycyclopentyl]quinoline-2-carboxamide] was run?
A: 1.66 µM

Q: With `N#Cc1ccc(Oc2ccc3nc(C(=O)NC4(CO)CC4)ccc3c2)cc1` [Example 123, 6-(4-cyanophenoxy)-N-[1-(hydroxymethyl)cyclopropyl]quinoline-2-carboxamide] as the molecule, how does the IC50 read?
A: 6.55 µM

Q: With `CC(C)(CO)NC(=O)c1ccc2cc(Oc3ccc(C#N)cc3)ccc2n1` [Example 124, 6-(4-cyanophenoxy)-N-(1-hydroxy-2-methylpropan-2-yl)quinoline-2-carboxamide] as the molecule, how does the IC50 read?
A: 2.14 µM

Q: How did the IC50 turn out when `CC(CO)NC(=O)c1ccc2cc(Oc3ccc(C#N)cc3)ccc2n1` (stereo not shown) [Example 127, 6-(4-cyanophenoxy)-N-(1-hydroxypropan-2-yl)quinoline-2-carboxamide] was run?
A: 4.07 µM

Q: How did the IC50 turn out when `CC(O)CNC(=O)c1ccc2cc(Oc3ccc(C#N)cc3)ccc2n1` (stereo not shown) [Example 128, 6-(4-cyanophenoxy)-N-(2-hydroxypropyl)quinoline-2-carboxamide] was run?
A: 2.85 µM

Q: For `N#Cc1ccc(Oc2ccc3nc(C(=O)N[C@@H]4CCC[C@@H]4O)ccc3c2)cc1` [Example 131, 6-(4-cyanophenoxy)-N-[(1R,2S)-2-hydroxycyclopentyl]quinoline-2-carboxamide], which IC50 is on record?
A: 1.15 µM

Q: `CC(O)C(C)NC(=O)c1ccc2cc(Oc3ccc(C#N)cc3)ccc2n1` (stereo not shown) [Example 134, 6-(4-cyanophenoxy)-N-(3-hydroxybutan-2-yl)quinoline-2-carboxamide] was tested. Which IC50 did it give?
A: 2.32 µM

Q: `CC(C)C(O)CNC(=O)c1ccc2cc(Oc3ccc(C#N)cc3)ccc2n1` (stereo not shown) [Example 135, 6-(4-cyanophenoxy)-N-(2-hydroxy-3-methylbutyl)quinoline-2-carboxamide] was tested. Which IC50 did it give?
A: 0.688 µM

Q: For `N#Cc1ccc(Oc2ccc3nc(C(=O)NC4CCS(=O)(=O)C4)ccc3c2)cc1` (stereo not shown) [Example 136, 6-(4-cyanophenoxy)-N-(1,1-dioxidotetrahydrothiophen-3-yl)quinoline-2-carboxamide], which IC50 is on record?
A: 0.533 µM
